Results from patent US20070208088A1, “PQS: A NEW HYDROTROPE FOR SOLUBILIZING LIPOPHILIC COMPOUNDS IN WATER” (ZYMES, LLC, priority 2006, published 2007).

Assay: Micelle formation and micelle particle size in aqueous solution
Format: physicochemical
Conditions: for particle size of the micelles: micelles formed in aqueous solution
From the text: In one example, the compounds of the invention form micelles when added to an aqueous solution. The particle sizes of these micelles can be determined using art recognized methods, such as light scattering techniques. In one embodiment, the particle size is between about 300 nm and about 1 nm, preferably between about 200 nm and about 1 nm, more preferably between about 100 nm and about 1 nm. Smaller particle sizes are generally preferred.
Smaller micelle size is generally preferred.

Substance | micelle formation in aqueous solution | particle size of the micelles
polyoxyethanyl-ubiquinol-sebacate [PQS-600] | forms micelles | about 120 nm
polyoxyethanyl-ubiquinol-sebacate [PQS-1000] | forms micelles | about 80 nm
